{
  "source": "patent US7786142B2",
  "about": "“Heterocyclic compounds as pSTAT3/IL-6 inhibitors” (Orchid Research Laboratories, Ltd., priority 2005, dated 2010)",
  "key": {"HCT116 cells": {"tested_on": "HCT116 cells", "assay": "Anti-cancer screen (MTT), HCT116 cells", "format": "cell-based", "conditions": "Homo sapiens, HCT-116, HCT116, 48 hours, concentrations tested 0.01-100 μM", "method_in_brief": "(§1)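 Cells (5000/well) in DMEM with 10% FBS were treated for 48 hours with 0.01, 0.1, 1, 10 and 100 μM compound in triplicate. MTT read at 570 nm gave percent growth relative to untreated controls and pre-dose T0 wells, from which GI50, TGI and LC50 were derived.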"}, "pSTAT3": {"tested_on": "pSTAT3", "assay": "pSTAT3 inhibition (Western blot in DU 145 / SKOV-3 cells; ELISA in HepG2 cells)", "format": "cell-based", "conditions": "in words; FIGS. 1 and 2", "experimental": "Western blot analysis was performed as described by Kammer W et. al (J Biol Chem 271, 23634-23637, and J Biol Chem 273, 31222-31229). Briefly, 60 μg of whole cell extract was solubilized in Laemmeli buffer (50 mM Tris/HCl, pH 6.8, 2% SDS, 10% glycerol, 1 mM DTT, 1× Protease inhibitor cocktail, SET-3 (Calbiochem), 1 mM Sodium Ortho-vanadate) boiled for 5-10 minutes, and separated on a 10 or 12% acrylamide SDS gel. After protein transfer, the nitrocellulose membranes were blocked in blocking buffer for 2 hour (1×TBS, 0.1% Tween-20, 5% BSA). Membranes were incubated for 20 hours in blocking buffer containing, STAT3 P-Tyr705 (Santa Cruz Biotech), STAT3 (H-190, Santa Cruz Biotech) and Actin (C-2, Santa Cruz Biotech) antibody at 1:300 dilution. Detection was performed with HRP conjugated antimouse/antirabbit IgG (Santa Cruz Biotech) at a dilution of 1:3,000 for 1 hour. Visualization was performed using an Enhanced Chemiluminescence detection kit (Amersham). See Appended Diagrams: FIGS. 1 and 2. […]\nCapture Antibody was diluted to a working concentration of 2.0 μg/mL in PBS. […] The plates were made ready after 2-3 washes with wash buffer. […] The reaction was stopped by adding 50 μl of stop solution to each well and the OD was determined using a microplate reader at 450 nm."}, "[1]": {"tested_on": "NCIH460, HCT116, MDAMB-231/U 251", "assay": "Anti-cancer screen, mean GI50 over the cell lines", "format": "cell-based", "method_in_brief": "as §1"}, "MDAMB-231/U 251": {"tested_on": "MDAMB-231/U 251", "assay": "Anti-cancer screen (MTT), MDAMB-231/U 251 cells", "format": "cell-based", "conditions": "MDAMB-231/U 251, 48 hours, concentrations tested 0.01-100 μM", "method_in_brief": "as §1"}, "[2]": {"conditions": "mouse, in vivo", "experimental": "All test compound/standard drugs were delivered by gavage in a volume of 10 ml/kg. Drugs were administered every day for single time to a period of 21 days. Control mice were treated with the drug solvent/vehicle. Tumor size is measured every alternate days and body weight is recorded daily.\n• a) Tumor Volume Inhibition (TVI): A TVI value higher than 80% is indicative of active compounds. • b) T/C % is also another indicator for the activity. A reproducible 20% T/C is considered as therapeutically active. • c) Log Cell Kill (LCK): A LCK value greater than 1 is indicative of active compounds. • d) Relative Tumor Volume (RTV), Tumor Delay and % Tumor volume change are also considered as valuable additional parameters for assessment. • e) Toxic effects of drug treatment were assessed by Body Weight Loss % • f) Lethal toxicity was defined as any death in treated groups occurring before any control death. Mice were inspected daily for mortality and toxic clinical signs."}},
  "note": "Entries after “also recorded” stand apart in the source; their conditions may differ.",
  "data": [
    {"smiles": "COc1ccc(CNC[C@H](O)COc2cccc3[nH]c4ccccc4c23)c(OC)c1", "note": "[Example 25, (2S)-1-(9H-carbazol-4-yloxy)-3-[(2,4-dimethoxybenzyl)amino]propan-2-ol]", "values": [
      {"measurement": "GI50", "setting": "HCT116 cells", "value": 5.6, "unit": "µM"},
      {"measurement": "IC (TGI)", "setting": "HCT116 cells", "value": 48, "unit": "µM"},
      {"measurement": "LC50 (concentration for 50% net cell kill relative to T0)", "setting": "HCT116 cells", "value": 79, "unit": "µM"},
      {"measurement": "pSTAT3 inhibition", "setting": "pSTAT3", "value": "work through pSTAT3 inhibition; also recorded: operates through pSTAT3 inhibition"},
      {"measurement": "GI50", "setting": "[1]", "value": 6.4, "unit": "µM"},
      {"measurement": "GI50", "setting": "MDAMB-231/U 251", "value": 13, "unit": "µM"},
      {"measurement": "IC (TGI)", "setting": "MDAMB-231/U 251", "value": 49, "unit": "µM"},
      {"measurement": "CC50", "setting": "MDAMB-231/U 251; read-out: LC50 (the source's name)", "value": 81, "unit": "µM"},
      {"measurement": "body weight loss", "setting": "[2]", "value": "no body weight loss was observed"}
    ]}
  ]
}
